# Reference: PubChem BioAssay AID256 (DTP/NCI, 2004)
# Where “and” joins values, the source holds several entries; their conditions need not be identical. Identical values can stand only once. Inconclusive results and toxic doses are left out.
# System: CD2F1 mice, L1210 leukemia ip, survival T/C
# Assay: NCI In Vivo Anticancer Drug Screen. Data for tumor model L1210 Leukemia (intraperitoneal) in CD2F1 (CDF1) mice
# Conditions: higher = longer survival
# How it was run: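 Mice carrying a transplanted tumor received test compound or vehicle alone. The value is the measurement in the treated group divided by that in the vehicle-treated control group.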
# [1] = endpoint: mean survival time, dose: 100.0 mg/kg/injection, schedule: Q01DX009 (ip), vehicle: saline with Tween-80
# [2] = endpoint: mean survival time, dose: 100.0 mg/kg/injection, schedule: Q04DX003 (ip), vehicle: saline with Tween-80
# [3] = endpoint: mean survival time, dose: 200.0 mg/kg/injection, schedule: Q01DX009 (ip), vehicle: saline with Tween-80
# [4] = endpoint: mean survival time, dose: 200.0 mg/kg/injection, schedule: Q04DX003 (ip), vehicle: saline with Tween-80
# [5] = endpoint: mean survival time, dose: 400.0 mg/kg/injection, schedule: Q01DX009 (ip), vehicle: saline with Tween-80
# [6] = endpoint: mean survival time, dose: 400.0 mg/kg/injection, schedule: Q04DX003 (ip), vehicle: saline with Tween-80
# [7] = endpoint: mean survival time, dose: 100.0 mg/kg/injection, schedule: Q04DX002 (ip), vehicle: saline with Tween-80
# [8] = endpoint: mean survival time, dose: 200.0 mg/kg/injection, schedule: Q04DX002 (ip), vehicle: saline with Tween-80
# [9] = endpoint: mean survival time, dose: 400.0 mg/kg/injection, schedule: Q04DX002 (ip), vehicle: saline with Tween-80
# [10] = endpoint: mean survival time, dose: 100.0 mg/kg/injection, schedule: Q01DX001 (ip), vehicle: saline with Tween-80
# [11] = endpoint: mean survival time, dose: 200.0 mg/kg/injection, schedule: Q01DX001 (ip), vehicle: saline with Tween-80
# [12] = endpoint: mean survival time, dose: 50.0 mg/kg/injection, schedule: Q01DX009 (ip), vehicle: saline with Tween-80
compound,measurement,setting,value
N#CC(C(=O)N1CCCC1)=C(S)S,T/C,[1],102 % of control
same,T/C,[2],100 % of control
same,T/C,[3],101 % of control
same,T/C,[4],100 % of control
same,T/C,[5],102 % of control
same,T/C,[6],103 % of control
O=c1[nH]cc(Br)c(=O)[nH]1,T/C,[7],101 % of control
same,T/C,[8],97 % of control
same,T/C,[9],106 % of control
CCC1(C)CCC2=C(CCC3C(C)(C(=O)O)CCCC23C)C1 (stereo not given),T/C,[10],96 % of control
same,T/C,[1],93 % of control
same,T/C,[11],91 % of control
same,T/C,[3],91 % of control
same,T/C,"endpoint: mean survival time, dose: 400.0 mg/kg/injection, schedule: Q01DX001 (ip), vehicle: saline with Tween-80",96 % of control
CCN(CC)Cc1ccccc1COC(=O)c1ccccc1,T/C,"endpoint: mean survival time, dose: 100.0 mg/kg/injection, schedule: Q04DX002 (ip), vehicle: saline",98 % of control
same,T/C,"endpoint: mean survival time, dose: 200.0 mg/kg/injection, schedule: Q04DX002 (ip), vehicle: saline",111 % of control
CC(C)(C)OC(=O)NC(Cc1ccc(OCc2ccccc2)cc1)C(=O)O (stereo not given),T/C,[2],95 % of control
same,T/C,[4],101 % of control
O=C(Nc1ccccc1I)c1ccccc1,T/C,[2],110 % of control
same,T/C,[4],98 % of control
same,T/C,[6],98 % of control
Cc1ccc(N2OCCN(C(=O)c3ccc([N+](=O)[O-])cc3)C2c2ccccc2)cc1 (stereo not given),T/C,[2],98 % of control
same,T/C,[4],97 % of control
same,T/C,[6],98 % of control
CC1=CC(C)(C)Nc2ccc(CSc3ccccc3)cc21,T/C,"endpoint: mean survival time, dose: 12.5 mg/kg/injection, schedule: Q01DX009 (ip), vehicle: DMSO",102 % of control
same,T/C,"endpoint: mean survival time, dose: 25.0 mg/kg/injection, schedule: Q01DX009 (ip), vehicle: DMSO",95 % of control
same,T/C,"endpoint: mean survival time, dose: 25.0 mg/kg/injection, schedule: Q01DX009 (ip), vehicle: other",97 % of control
same,T/C,"endpoint: mean survival time, dose: 50.0 mg/kg/injection, schedule: Q01DX009 (ip), vehicle: DMSO",97 % of control
same,T/C,"endpoint: mean survival time, dose: 50.0 mg/kg/injection, schedule: Q01DX009 (ip), vehicle: other",93 % of control
same,T/C,"endpoint: mean survival time, dose: 100.0 mg/kg/injection, schedule: Q01DX009 (ip), vehicle: other",96 % of control
CC(C)OC(=O)Nc1cc(C(F)(F)F)cc(C(F)(F)F)c1,T/C,[1],113 % of control
same,T/C,[3],94 % of control
same,T/C,[5],92 % of control
CN(N)C=O,T/C,"endpoint: mean survival time, dose: 25.0 mg/kg/injection, schedule: Q04DX003 (ip), vehicle: saline",98 % of control
same,T/C,"endpoint: mean survival time, dose: 50.0 mg/kg/injection, schedule: Q04DX003 (ip), vehicle: saline",94 % of control
same,T/C,"endpoint: mean survival time, dose: 100.0 mg/kg/injection, schedule: Q04DX003 (ip), vehicle: saline",102 % of control
Cn1c2ccccc2c(=O)c2ccc(Cl)cc21,T/C,[2],95 % of control
same,T/C,[4],96 % of control
same,T/C,[6],96 % of control
CC(NC(=O)CN)C(=O)O (stereo not given),T/C,"endpoint: mean survival time, dose: 100.0 mg/kg/injection, schedule: Q01DX001 (ip), vehicle: saline",100 % of control
same,T/C,"endpoint: mean survival time, dose: 200.0 mg/kg/injection, schedule: Q01DX001 (ip), vehicle: saline",100 % of control
same,T/C,"endpoint: mean survival time, dose: 400.0 mg/kg/injection, schedule: Q01DX001 (ip), vehicle: saline",104 % of control
O=C(O)c1ccccc1C(=O)CC(O)(C(F)(F)F)C(F)(F)F,T/C,[2],101 % of control
same,T/C,[4],97 % of control
same,T/C,[6],102 % of control
CCCCCCCCCCCCCCCCCCNC(=O)C[N+](C)(C)Cc1ccccc1,T/C,"endpoint: mean survival time, dose: 6.25 mg/kg/injection, schedule: Q04DX003 (ip), vehicle: saline with Tween-80",103 % of control
same,T/C,"endpoint: mean survival time, dose: 12.5 mg/kg/injection, schedule: Q04DX003 (ip), vehicle: saline with Tween-80",97 % of control
O=C(O)CC1CCC1CC(=O)O (stereo not given),T/C,[12],90 % of control
same,T/C,[1],96 % of control and 100 % of control
same,T/C,[3],96 % of control and 103 % of control
Cc1cc(C)c(C(=O)c2no[n+]([O-])c2C(=O)c2c(C)cc(C)c(Br)c2C)c(C)c1Br,T/C,[1],97 % of control
same,T/C,[3],97 % of control
same,T/C,[5],98 % of control
COc1cccc2c1C(=O)c1c(O)c3c(c(O)c1C2=O)C[C@@](O)(C(=O)COC(=O)Cc1ccccc1)C[C@@H]3OC1CC(N)C(O)C(C)O1 (stereo not given in full),T/C,"endpoint: mean survival time, dose: 0.5 mg/kg/injection, schedule: Q01DX009 (ip), vehicle: saline with Tween-80",123 % of control
same,T/C,"endpoint: mean survival time, dose: 1.32 mg/kg/injection, schedule: Q01DX009 (ip), vehicle: saline",118 % of control
same,T/C,"endpoint: mean survival time, dose: 2.0 mg/kg/injection, schedule: Q01DX009 (ip), vehicle: saline",114 % of control
same,T/C,"endpoint: mean survival time, dose: 3.0 mg/kg/injection, schedule: Q01DX009 (ip), vehicle: saline",117 % of control
same,T/C,"endpoint: mean survival time, dose: 8.0 mg/kg/injection, schedule: Q01DX009 (ip), vehicle: saline with Tween-80",96 % of control
same,T/C,"endpoint: mean survival time, dose: 10.0 mg/kg/injection, schedule: Q04DX003 (ip), vehicle: saline with Tween-80",158 % of control
same,T/C,"endpoint: mean survival time, dose: 20.0 mg/kg/injection, schedule: Q01DX001 (ip), vehicle: saline with Tween-80",107 % of control
same,T/C,"endpoint: mean survival time, dose: 20.0 mg/kg/injection, schedule: Q04DX003 (ip), vehicle: saline with Tween-80",102 % of control
S=c1sc2ccccc2n1CN1CCOCC1,T/C,"endpoint: median survival time, dose: 12.5 mg/kg/injection, schedule: Q01DX009 (ip), vehicle: saline with Tween-80",97 % of control and 104 % of control
same,T/C,"endpoint: median survival time, dose: 25.0 mg/kg/injection, schedule: Q01DX009 (ip), vehicle: saline with Tween-80",100 % of control
same,T/C,"endpoint: median survival time, dose: 50.0 mg/kg/injection, schedule: Q01DX009 (ip), vehicle: saline with Tween-80",101 % of control and 106 % of control
same,T/C,"endpoint: median survival time, dose: 100.0 mg/kg/injection, schedule: Q01DX009 (ip), vehicle: saline with Tween-80",101 % of control and 108 % of control
same,T/C,"endpoint: median survival time, dose: 200.0 mg/kg/injection, schedule: Q01DX009 (ip), vehicle: saline with Tween-80",98 % of control and 100 % of control
NCCS(=O)(=O)O,T/C,"endpoint: mean survival time, dose: 100.0 mg/kg/injection, schedule: Q01DX009 (ip), vehicle: water",95 % of control
same,T/C,"endpoint: mean survival time, dose: 200.0 mg/kg/injection, schedule: Q01DX001 (ip), vehicle: water",98 % of control
same,T/C,"endpoint: mean survival time, dose: 200.0 mg/kg/injection, schedule: Q01DX009 (ip), vehicle: water",86 % of control
same,T/C,"endpoint: mean survival time, dose: 400.0 mg/kg/injection, schedule: Q01DX001 (ip), vehicle: water",96 % of control
same,T/C,"endpoint: mean survival time, dose: 400.0 mg/kg/injection, schedule: Q01DX009 (ip), vehicle: water",92 % of control
same,T/C,"endpoint: mean survival time, dose: 800.0 mg/kg/injection, schedule: Q01DX001 (ip), vehicle: water",98 % of control
same,T/C,"endpoint: mean survival time, dose: 800.0 mg/kg/injection, schedule: Q01DX009 (ip), vehicle: water",92 % of control
same,T/C,"endpoint: mean survival time, dose: 1600.0 mg/kg/injection, schedule: Q01DX001 (ip), vehicle: water",107 % of control
O=C(c1ccccc1Cl)c1cccc2ccccc12,T/C,"endpoint: mean survival time, dose: 100.0 mg/kg/injection, schedule: Q01DX009 (ip), vehicle: saline",110 % of control
same,T/C,"endpoint: mean survival time, dose: 200.0 mg/kg/injection, schedule: Q01DX009 (ip), vehicle: saline",96 % of control
same,T/C,"endpoint: mean survival time, dose: 400.0 mg/kg/injection, schedule: Q01DX009 (ip), vehicle: saline",94 % of control
COc1ccc2c(c1)CCC(c1ccccc1)=C2c1ccc(OCCN2CCCC2)cc1,T/C,"endpoint: mean survival time, dose: 6.0 mg/kg/injection, schedule: Q01DX009 (ip), vehicle: saline with Tween-80",103 % of control
same,T/C,"endpoint: mean survival time, dose: 12.0 mg/kg/injection, schedule: Q01DX009 (ip), vehicle: saline with Tween-80",106 % of control
same,T/C,"endpoint: mean survival time, dose: 24.0 mg/kg/injection, schedule: Q01DX009 (ip), vehicle: saline with Tween-80",101 % of control
same,T/C,"endpoint: mean survival time, dose: 40.0 mg/kg/injection, schedule: Q04DX003 (ip), vehicle: saline with Tween-80",104 % of control
same,T/C,"endpoint: mean survival time, dose: 80.0 mg/kg/injection, schedule: Q04DX003 (ip), vehicle: saline with Tween-80",101 % of control
O=P(OCC(F)(F)F)(OCC(F)(F)F)OCC(F)(F)F,T/C,[7],98 % of control
same,T/C,[8],102 % of control
same,T/C,[9],105 % of control
CN(C)/N=C/c1cccc(CC(O)(C(F)(F)F)C(F)(F)F)n1,T/C,[12],94 % of control
same,T/C,[10],105 % of control
same,T/C,[1],96 % of control
same,T/C,[11],100 % of control
same,T/C,[3],97 % of control
